Like-named read-outs stand apart in the source and are kept apart here.
Columns and labels:
herpesvirus 5 = herpesvirus 5 plaque reduction assay in MRC-5 cell monolayers; assay type: cell-based, human herpesvirus 5 (HCMV)
Method: Compound 1 was isolated from a unique Taiwanese plant (Taiwania cryptomerioides). See, e.g., Chang et al. (2000) Phytochemistry 55: 227. Antiviral drug ganciclovir (i.e., […], GCV) was purchased from Sigma. Both compounds were solubilized in 100% dimethyl sulfoxide (DMSO) at a concentration of 10 mM and stored at −20° C. The compounds were added to cultures such that the resulting concentrations of DMSO never exceed 0.05%, by volume. To reserve the stability of both compounds, Compound 1 and GCV were never stored in cell culture medium and made fresh for each experiment.
Human cell lines, HEL299 (ATCC CCL-137), MRC-5 (ATCC CCL-171), H1299 (CRL-5803), and ARPE19 (CRL-2302) were grown in respective culture media as indicated by the ATCC. All cell lines were screened periodically for mycoplasma contamination. Two HCMV lab strains, AD169 (VR-538) and the Town strain RC256 (the ATCC VR-2356) were purchased from ATCC. All stocks of HCMV were prepared as described in Spaete & Mocarski (1985) J Virol 54(3): 817-24.
The activities of Compound 1 and GCV against herpesvirus 5 were determined by a plaque reduction assay. All herpesvirus 5 plaque reduction assays were performed with monolayer cultures of MRC-5 cells in 6-well cluster dishes (Costar, Cambridge, Mass.). Briefly, one day before the experiment, MRC-5 cells were seeded into 6-well plates at a final concentration of 5×10^6 cells/well. On the day of virus inoculation, cells were treated with each test compound at a desired concentration for one hour before virus inoculation. The serially-diluted virus inoculums containing 10^5 to 10^0 PFU of herpesvirus […] were then added into cell cultures and incubated for additional 2 hours at 37° C. After the incubation, the cells were extensively washed with phosphate buffered saline (PBS) three times and then overlayed with the overlay medium containing 0.3% agar in the absence or presence of the test compounds. The cell cultures were maintained in the 37° C. incubator for two weeks. After removing the overlay agar, the cells were stained with crystal violet.

[1] = cytotoxic effect by MTS assay; assay type: cell-based; conditions: human, read-out: LC50 value (i.e., half lethal concentration)
Method: The cytotoxic effect was also determined using the MTS (3-(4,5-dimethylthiazol-2-yl)-5-(3-carboxymethoxyphenyl)-2-(4-sulfophenyl)-2H-tetrazolium, inner salt) assay method described in Goodwin et al. (1995, J. Immunol. Methods. 179: 95).

[2] = tested on: herpesvirus 5 ie and pp150 transcripts; experiment: reverse transcription (RT) assay of ie and pp150 transcripts in infected HEL299 cells; assay type: cell-based, herpesvirus 5 lab strain AD169; conditions: AD169, MOI 1.0, total RNA day 0-7 post-infection
Method: To determine whether the absence of IE2 protein expression was due to Compound 1-induced abrogation at the transcriptional level, a reverse transcription (RT) assay was performed to measure the IE2 mRNA in the absence or presence of Compound 1. Basically, HEL299 cells were infected with herpesvirus 5 lab strain AD169 at a MOI of 1.0. Total RNAs were then extracted, collected after 2 hours of virus absorption on day 0, 1, 3, 5, and 7 post-infection. The expression of immediate early (ie) and late (pp150) gene products were determined by amplifying segments spanning at a common region shared by ie genes 1 and 2, and the 5′ end of pp150. As an internal control, a segment spanning β-actin was also amplified. […] The expression of pp150 transcripts was also detected after day 3.

[3] = tested on: herpesvirus 5 immediate early protein 2 (IE2 protein); experiment: expression of herpesvirus 5 IE2 and late proteins in infected HEL299 cells; assay type: cell-based; conditions: AD169, MOI 1.0, lysates day 0-7 post-infection
Method: Cell-free virus stock, whose titer had been determined by a plaque reduction assay, was used. One day before the experiment, herpesvirus 5-permissive cells were seeded into 6-well plates at a final concentration of 5×10^6 cells/well. On the day of viral infection, the cells were incubated with or without a test compound (Compound 1 or GCV) for one hour. Subsequently, the cells were washed with PBS twice and serum-free medium were added during virus inoculation. The virus inocula were approximately at a multiplicity of infection (MOI) of 0.1 to 1 PFU/cell depending on which cell line was used. After two hours of incubation with viruses, cells were washed with PBS to remove unbound viruses. The cells were maintained at fresh media with or without test compounds at 37° C. with 5% CO2 incubator. The cell lysate samples were collected on day 0, 1, 3, 5, and 7 after virus infection.
More specifically, HEL299 cells were infected with herpesvirus 5 lab strain AD169 at an MOI of 1.0. Cell lysates were then collected after 2 hours of virus absorption on day 0, 1, 3, 5, and 7 post-infection. IE2 protein in virally infected cells was expressed rapidly on day 1 and increased dramatically on day 5. The expression of herpesvirus 5 late proteins was also detected on days 5 and 7 post-infection.

Row | SMILES | IC50 (herpesvirus 5; Human betaherpesvirus 5, MRC5, read-out: IC50 value (i.e., 50% infectious concentration)) | potency relative to GCV (herpesvirus 5; IC50 compared with that of GCV) | SI (selectivity index=LC50/IC50) (herpesvirus 5; LC50 (MTS)/IC50 (plaque reduction)) | herpesvirus 5 growth in the presence of compound (herpesvirus 5; plaque reduction, MRC-5 cells) | CC50 [1] | detection of viral RNA (ie and pp150 transcripts) [2] | detection of IE2 and late viral proteins in infected cells [3] | IC50 (herpesvirus 5; Human betaherpesvirus 5, MRC5, plaque reduction, MRC-5 cells, herpesvirus 5, read-out: IC50 value (i.e., 50% infectious concentration))
1 | O=C1OCc2c1cc1ccc3c(c1c2-c1ccc2c(c1)OCO2)OCO3 [Compound 1, 10-benzo[1,3]dioxol-5-yl-9H-furo[3′,4′:6,7]naphtho[1,2-d][1,3]dioxol-7-one] | < 100 nM | ten-fold more potent | > 160 | inhibited | > 16 µM | none of these viral RNA was detected | none of these viral proteins was detected | 
2 | Nc1nc2c(ncn2COC(CO)CO)c(=O)[nH]1 [GCV, 2-amino-1,9-dihydro-9-[(2-hydroxy-1-(hydroxymethyl)ethoxy)methyl]-6H-purin-6-one, reference compound] |  |  |  |  |  |  |  | 1000 nM
